PubChem BioAssay AID248 (DTP/NCI, 2004)
Values joined by “and” are separate entries in the source; they are usually repeats but may differ in a detail not shown here. Identical values can stand only once. Inconclusive results and toxic doses are left out. Rule as the data show it: active = T/C of 150% or more; inactive = T/C below 125%.

Test system: L1210 leukemia ip in BDF1 mice, survival T/C
Assay: NCI In Vivo Anticancer Drug Screen. Data for tumor model L1210 Leukemia (intraperitoneal) in B6D2F1 (BDF1) mice
Settings: endpoint: mean survival time, higher = longer survival
Summary of the method: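 Value reflects the ratio of survival in compound-treated mice to survival in vehicle-treated controls, with both groups carrying the same transplanted tumor.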

[1] = dose: 50.0 mg/kg/injection, schedule: Q04DX003 (ip), vehicle: saline
[2] = dose: 100.0 mg/kg/injection, schedule: Q01DX001 (ip), vehicle: saline
[3] = dose: 200.0 mg/kg/injection, schedule: Q01DX001 (ip), vehicle: saline
[4] = dose: 400.0 mg/kg/injection, schedule: Q01DX001 (ip), vehicle: saline
[5] = dose: 100.0 mg/kg/injection, schedule: Q01DX009 (ip), vehicle: other
[6] = dose: 200.0 mg/kg/injection, schedule: Q01DX009 (ip), vehicle: other
[7] = dose: 100.0 mg/kg/injection, schedule: Q04DX003 (ip), vehicle: saline with Tween-80
[8] = dose: 200.0 mg/kg/injection, schedule: Q04DX003 (ip), vehicle: saline with Tween-80
[9] = dose: 100.0 mg/kg/injection, schedule: Q01DX009 (ip), vehicle: saline with Tween-80
[10] = dose: 200.0 mg/kg/injection, schedule: Q01DX009 (ip), vehicle: saline with Tween-80
[11] = dose: 400.0 mg/kg/injection, schedule: Q01DX009 (ip), vehicle: saline with Tween-80
[12] = dose: 100.0 mg/kg/injection, schedule: Q04DX003 (ip), vehicle: saline
[13] = dose: 200.0 mg/kg/injection, schedule: Q04DX003 (ip), vehicle: saline
[14] = dose: 400.0 mg/kg/injection, schedule: Q04DX003 (ip), vehicle: saline
[15] = dose: 50.0 mg/kg/injection, schedule: Q01DX009 (ip), vehicle: saline with Tween-80
[16] = dose: 100.0 mg/kg/injection, schedule: Q04DX002 (ip), vehicle: saline with Tween-80
[17] = dose: 200.0 mg/kg/injection, schedule: Q04DX002 (ip), vehicle: saline with Tween-80
[18] = dose: 400.0 mg/kg/injection, schedule: Q04DX002 (ip), vehicle: saline with Tween-80
[19] = dose: 400.0 mg/kg/injection, schedule: Q04DX003 (ip), vehicle: saline with Tween-80

Measured: T/C

Nc1nc(N)c(N=Nc2ccccc2S(=O)(=O)O)c(=O)[nH]1
inactive: dose: 12.5 mg/kg/injection, schedule: Q01DX009 (ip), vehicle: saline 97 % of control | dose: 25.0 mg/kg/injection, schedule: Q01DX009 (ip), vehicle: saline 97 % of control | dose: 50.0 mg/kg/injection, schedule: Q01DX009 (ip), vehicle: saline 100 % of control | [1] 101 % of control | [2] 96 % of control | [3] 98 % of control | [4] 104 % of control

CCn1c2ccccc2c2cc(C=O)ccc21
inactive: dose: 25.0 mg/kg/injection, schedule: Q01DX009 (ip), vehicle: other 95 % of control | dose: 50.0 mg/kg/injection, schedule: Q01DX009 (ip), vehicle: other 98 % of control and 106 % of control | [5] 88 % of control | [6] 94 % of control

CCCCCSP(SCCCCC)c1ccccc1
inactive: dose: 100.0 mg/kg/injection, schedule: Q01DX009 (ip), vehicle: Klucel (hydroxypropylcellulose) (HPC) 92 % of control | dose: 200.0 mg/kg/injection, schedule: Q01DX009 (ip), vehicle: Klucel (hydroxypropylcellulose) (HPC) 94 % of control

CN(C)C=C1C(=O)c2ccccc2C1=O
inactive: [7] 105 % of control | [8] 107 % of control

CN(C)P1(=O)N(c2ccc(Cl)cc2)P(=O)(N(C)C)N1c1ccc(Cl)cc1 (stereo unspecified)
inactive: dose: 100.0 mg/kg/injection, schedule: Q04DX002 (ip), vehicle: saline 96 % of control | dose: 200.0 mg/kg/injection, schedule: Q04DX002 (ip), vehicle: saline 100 % of control | dose: 400.0 mg/kg/injection, schedule: Q04DX002 (ip), vehicle: saline 93 % of control

CN(C(=O)COc1ccccc1)c1ccc([N+](=O)[O-])cc1
inactive: [9] 95 % of control | [10] 93 % of control | [11] 95 % of control

Cc1ccn(C)c(=O)c1
inactive: [12] 105 % of control | [13] 103 % of control | [14] 102 % of control

CCCCOC(=O)c1ccc(NC(=O)Nc2ccc([N+](=O)[O-])cc2OC)cc1
inactive: [5] 98 % of control | [6] 104 % of control | dose: 400.0 mg/kg/injection, schedule: Q01DX009 (ip), vehicle: other 87 % of control

Fc1ccc(N2CCNCC2)cc1
inactive: dose: 12.5 mg/kg/injection, schedule: Q01DX009 (ip), vehicle: saline with Tween-80 104 % of control | dose: 25.0 mg/kg/injection, schedule: Q01DX009 (ip), vehicle: saline with Tween-80 104 % of control | [15] 107 % of control

Cc1cc(CSC(=N)N)c(CSC(=N)N)cc1C
inactive: dose: 10.0 mg/kg/injection, schedule: Q01DX001 (ip), vehicle: saline 97 % of control | dose: 20.0 mg/kg/injection, schedule: Q01DX001 (ip), vehicle: saline 94 % of control | dose: 40.0 mg/kg/injection, schedule: Q01DX001 (ip), vehicle: saline 94 % of control

Cc1cc(Cc2ccccc2)n[nH]1
inactive: dose: 100.0 mg/kg/injection, schedule: Q01DX001 (ip), vehicle: Klucel (hydroxypropylcellulose) (HPC) 107 % of control | dose: 200.0 mg/kg/injection, schedule: Q01DX001 (ip), vehicle: Klucel (hydroxypropylcellulose) (HPC) 102 % of control | dose: 400.0 mg/kg/injection, schedule: Q01DX001 (ip), vehicle: Klucel (hydroxypropylcellulose) (HPC) 108 % of control

COc1cc(/C=C/C(=O)c2ccc3ccccc3c2)cc(OC)c1OC
inactive: [16] 97 % of control | [17] 107 % of control | [18] 87 % of control

O=[N+]([O-])c1ccc(Sc2ccc([N+](=O)[O-])cc2)cc1
inactive: [15] 92 % of control | [9] 91 % of control | [10] 89 % of control

CCOc1ccc(OCC)c(NC(=O)Nc2cc(Cl)ccc2OC)c1
inactive: dose: 100.0 mg/kg/injection, schedule: Q01DX001 (ip), vehicle: saline with Tween-80 95 % of control | [9] 111 % of control and 90 % of control | [16] 98 % of control and 91 % of control | [7] 96 % of control | dose: 200.0 mg/kg/injection, schedule: Q01DX001 (ip), vehicle: saline with Tween-80 88 % of control | [10] 101 % of control and 92 % of control | [17] 94 % of control and 103 % of control | [8] 94 % of control | dose: 400.0 mg/kg/injection, schedule: Q01DX001 (ip), vehicle: saline with Tween-80 87 % of control | [11] 89 % of control | [18] 91 % of control and 92 % of control | [19] 91 % of control

O=C1c2ccccc2C(=O)N1C/C=C/CN1C(=O)c2ccccc2C1=O
inactive: [2] 95 % of control | [12] 101 % of control | [3] 98 % of control | [13] 104 % of control | [4] 91 % of control | [14] 102 % of control

CC(C)CCN1C(c2ccccc2)=CN(Cc2ccccc2)C=C1c1ccccc1
inactive: dose: 100.0 mg/kg/injection, schedule: Q04DX002 (ip), vehicle: Klucel (hydroxypropylcellulose) (HPC) 100 % of control | dose: 200.0 mg/kg/injection, schedule: Q04DX002 (ip), vehicle: Klucel (hydroxypropylcellulose) (HPC) 92 % of control | dose: 400.0 mg/kg/injection, schedule: Q04DX002 (ip), vehicle: Klucel (hydroxypropylcellulose) (HPC) 95 % of control

O=C1CC(Nc2ccc(F)cc2)C(=O)N1c1ccc(F)cc1 (stereo unspecified)
inactive: dose: 75.0 mg/kg/injection, schedule: Q04DX003 (ip), vehicle: other 90 % of control | dose: 150.0 mg/kg/injection, schedule: Q04DX003 (ip), vehicle: other 92 % of control | dose: 300.0 mg/kg/injection, schedule: Q04DX003 (ip), vehicle: other 90 % of control

O=C(C1C2C=CC(CC2)C1C(=O)N1CCCCC1)N1CCCCC1 (stereo unspecified)
inactive: [7] 96 % of control | [8] 100 % of control | [19] 96 % of control

NC(=O)N/N=C\c1ccco1
inactive: dose: 25.0 mg/kg/injection, schedule: Q04DX003 (ip), vehicle: saline with Tween-80 106 % of control | dose: 50.0 mg/kg/injection, schedule: Q04DX003 (ip), vehicle: saline with Tween-80 100 % of control | dose: 100.0 mg/kg/injection, schedule: Q04DX003 (ip), vehicle: Klucel (hydroxypropylcellulose) (HPC) 106 % of control | [7] 94 % of control | dose: 200.0 mg/kg/injection, schedule: Q04DX003 (ip), vehicle: Klucel (hydroxypropylcellulose) (HPC) 102 % of control | dose: 400.0 mg/kg/injection, schedule: Q04DX003 (ip), vehicle: Klucel (hydroxypropylcellulose) (HPC) 98 % of control

Oc1ccccc1C(=NNc1ccccc1)c1ccccc1O
inactive: dose: 100.0 mg/kg/injection, schedule: Q01DX001 (ip), vehicle: carboxymethylcellulose (CMC) 115 % of control | dose: 200.0 mg/kg/injection, schedule: Q01DX001 (ip), vehicle: carboxymethylcellulose (CMC) 105 % of control | dose: 400.0 mg/kg/injection, schedule: Q01DX001 (ip), vehicle: carboxymethylcellulose (CMC) 103 % of control

C=CCSc1nc(N)nc2nc[nH]c12
inactive: [15] 122 % of control | [9] 123 % of control | [10] 124 % of control

CC(C)N(C(=O)/C=C/C(=O)N(C(C)C)C(C)C)C(C)C
inactive: dose: 25.0 mg/kg/injection, schedule: Q04DX003 (ip), vehicle: saline 92 % of control | [1] 95 % of control | [7] 100 % of control | [12] 98 % of control | [8] 96 % of control
